ChEMBL document CHEMBL2086273, “Significant activity of ecdysteroids on the resistance to doxorubicin in mammalian cancer cells expressing the human ABCB1 transporter” (J Med Chem, 2012)
Values belong to the compound of their own block, whether it stands above or below them.

Key:
[1] = target: T1, ATP-dependent translocase ABCB1 (Homo sapiens, UniProt P08183); assay: Inhibition of human ABCB1 expressed in mouse L5178 cells assessed as 75% inhibition of cell proliferation at compound-doxorubicin ratio of 81.5:1 after 48 hrs by MTT assay; format: cell-based; conditions: l5178, 48 h
T1 sequence (P08183 whole entry): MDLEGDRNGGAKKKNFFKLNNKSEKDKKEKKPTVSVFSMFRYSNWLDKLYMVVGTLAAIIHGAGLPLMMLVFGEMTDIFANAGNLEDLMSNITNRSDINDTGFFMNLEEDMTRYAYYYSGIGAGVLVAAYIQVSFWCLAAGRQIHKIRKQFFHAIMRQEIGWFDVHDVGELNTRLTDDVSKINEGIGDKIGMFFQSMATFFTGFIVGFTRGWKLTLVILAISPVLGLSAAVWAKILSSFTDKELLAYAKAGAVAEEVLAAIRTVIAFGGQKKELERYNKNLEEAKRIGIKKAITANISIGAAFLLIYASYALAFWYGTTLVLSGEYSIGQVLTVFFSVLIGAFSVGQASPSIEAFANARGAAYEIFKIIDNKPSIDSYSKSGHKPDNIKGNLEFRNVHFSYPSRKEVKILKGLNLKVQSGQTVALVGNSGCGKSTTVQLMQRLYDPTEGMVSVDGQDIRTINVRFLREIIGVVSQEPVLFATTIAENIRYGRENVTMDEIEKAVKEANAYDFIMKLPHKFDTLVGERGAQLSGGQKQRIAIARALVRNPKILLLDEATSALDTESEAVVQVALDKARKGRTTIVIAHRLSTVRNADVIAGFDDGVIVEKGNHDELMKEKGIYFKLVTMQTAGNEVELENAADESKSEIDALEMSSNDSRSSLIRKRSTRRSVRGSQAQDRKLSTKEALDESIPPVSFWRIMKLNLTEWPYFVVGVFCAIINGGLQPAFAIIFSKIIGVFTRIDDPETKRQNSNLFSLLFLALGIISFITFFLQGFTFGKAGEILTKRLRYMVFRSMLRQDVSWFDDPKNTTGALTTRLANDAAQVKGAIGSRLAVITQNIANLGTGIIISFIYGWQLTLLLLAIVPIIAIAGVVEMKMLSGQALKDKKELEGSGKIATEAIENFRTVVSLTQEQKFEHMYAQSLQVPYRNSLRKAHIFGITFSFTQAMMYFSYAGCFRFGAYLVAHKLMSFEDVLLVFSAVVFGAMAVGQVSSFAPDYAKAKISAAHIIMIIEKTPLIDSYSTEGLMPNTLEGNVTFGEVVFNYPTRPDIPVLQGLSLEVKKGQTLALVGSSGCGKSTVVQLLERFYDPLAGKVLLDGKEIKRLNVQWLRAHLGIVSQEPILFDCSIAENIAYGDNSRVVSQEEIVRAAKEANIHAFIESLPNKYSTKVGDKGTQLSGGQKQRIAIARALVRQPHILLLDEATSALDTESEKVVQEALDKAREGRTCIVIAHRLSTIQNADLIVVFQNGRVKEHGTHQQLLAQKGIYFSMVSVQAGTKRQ

[2] = target: T1, ATP-dependent translocase ABCB1; assay: Inhibition of human ABCB1 pump expressed in mouse L5178 cells assessed as fluorescence activity ratio at 20 uM for 10 mins by flow cytometry relative to control; format: cell-based; conditions: l5178, 10 min
[3] = Antiproliferative activity against multidrug-resistant mouse L5178 cells after 72 hrs by MTT assay; format: functional, cell-based; conditions: L5178, 72 h
[4] = target: T1, ATP-dependent translocase ABCB1; assay: Inhibition of human ABCB1 expressed in mouse L5178 cells assessed as 95% inhibition of cell proliferation at compound-doxorubicin ratio of 81.5:1 after 48 hrs by MTT assay; format: cell-based; conditions: l5178, 48 h
[5] = target: T1, ATP-dependent translocase ABCB1; assay: Inhibition of human ABCB1 expressed in mouse L5178 cells assessed as 50% inhibition of cell proliferation at compound-doxorubicin ratio of 81.5:1 after 48 hrs by MTT assay; format: cell-based; conditions: l5178, 48 h
[6] = Half life of the compound in hydrochloric acid solution at pH 1.48 at 1 mg/ml; format: physicochemical
Mus musculus [7] = assay: Acute toxicity in CFLP mouse at 250 mg/kg, ip co-administered with […] doxorubicin after 48 hrs; format: organism-based; design: dose 250 mg/kg, route intraperitoneal; conditions: in vivo
[8] = target: T1, ATP-dependent translocase ABCB1; assay: Inhibition of human ABCB1 expressed in mouse L5178 cells assessed as 75% inhibition of cell proliferation at compound-doxorubicin ratio of 20.4:1 after 48 hrs by MTT assay; format: cell-based; conditions: l5178, 48 h
[9] = Drug degradation of the compound in hydrochloric acid solution at pH 1.48 assessed as 20E 20,22-acetonide formation at 1 mg/ml; format: physicochemical; conditions: buffer
[10] = target: T1, ATP-dependent translocase ABCB1; assay: Inhibition of human ABCB1 expressed in mouse L5178 cells assessed as 50% inhibition of cell proliferation at compound-doxorubicin ratio of 20.4:1 after 48 hrs by MTT assay; format: cell-based; conditions: l5178, 48 h
[11] = target: T1, ATP-dependent translocase ABCB1; assay: Inhibition of human ABCB1 expressed in mouse L5178 cells assessed as 95% inhibition of cell proliferation at compound-doxorubicin ratio of 20.4:1 after 48 hrs by MTT assay; format: cell-based; conditions: l5178, 48 h
Mus musculus [12] = assay: Acute toxicity in CFLP mouse at 250 mg/kg, ip administered as single dose; format: organism-based; design: dose 250 mg/kg, route intraperitoneal; conditions: in vivo

Structure (SMILES): CC(C)(O)CC[C@H]1OC(C)(C)O[C@]1(C)[C@H]1CC[C@@]2(O)C3=CC(=O)[C@@H]4C[C@H]5OC(C)(C)O[C@H]5C[C@]4(C)[C@H]3CC[C@]12C
half-life at 1 mg/ml [6]: 7.3 min | Ratio [2]: 19.13 | Activity (Mus musculus [7]): Non-toxic | fractional inhibitory concentration index (FICI) [8]: 0.14 | Drug degradation [9]: Active | fractional inhibitory concentration index (FICI) [10]: 0.28 | fractional inhibitory concentration index (FICI) [11]: 0.073 | Activity (Mus musculus [12]): Non-toxic

Structure (SMILES): CC(C)CC[C@H](O)[C@](C)(O)[C@H]1CC[C@@]2(O)C3=CC(=O)[C@@H]4C[C@@H](O)[C@@H](O)C[C@]4(C)[C@H]3[C@H](O)C[C@]12C [AJUGASTERONE C]
Ratio [2]: 1.13 | fractional inhibitory concentration index (FICI) [8]: 1.66 | fractional inhibitory concentration index (FICI) [10]: 1.79 | fractional inhibitory concentration index (FICI) [11]: 1.88 | IC50 [3]: 30 µM

Continued, in another order:

Ratio [2]: 0.89
Structure (SMILES): CC(C)(O)CC[C@@H](O)[C@](C)(O)[C@H]1CC[C@@]2(O)C3=CC(=O)[C@@H]4C[C@H](O)[C@@H](O)C[C@]4(C)[C@H]3CC[C@]12C
fractional inhibitory concentration index (FICI) [1]: 0.45 | IC50 [3]: 30 µM | fractional inhibitory concentration index (FICI) [4]: 0.22 | fractional inhibitory concentration index (FICI) [5]: 1.16

Ratio [2]: 1.03
Structure (SMILES): CC(C)(O)CC[C@@H](O)[C@](C)(O)[C@H]1CC[C@]2(O)C3=CC(=O)[C@@H]4C[C@@H](O)[C@@H](O)C[C@]4(C)[C@H]3CC[C@]12C
fractional inhibitory concentration index (FICI) [1]: 0.91 | IC50 [3]: 30 µM | fractional inhibitory concentration index (FICI) [4]: 0.69 | fractional inhibitory concentration index (FICI) [5]: 1.18

Ratio [2]: 1.32
Structure (SMILES): CC(O)(CO)CC[C@@H](O)[C@](C)(O)[C@H]1CC[C@@]2(O)C3=CC(=O)[C@]4(O)C[C@@H](O)[C@@H](O)C[C@]4(C)[C@H]3CC[C@]12C (stereo partly drawn)
fractional inhibitory concentration index (FICI) [1]: 0.47 | IC50 [3]: 30 µM | fractional inhibitory concentration index (FICI) [4]: 0.12 | fractional inhibitory concentration index (FICI) [5]: 2.24
